Results published in ChEMBL document CHEMBL4610014, “Discovery of novel 2,4-disubstituted pyrimidines as Aurora kinase inhibitors” (Bioorg Med Chem Lett, 2020).
Each block holds one compound with its values, some of them ahead of it. Calls of active or inactive are those of the source. No cut-off for these calls is given here.

Tests used:
A549 = assay: Antiproliferative activity against human A549 cells assessed as reduction in cell viability after 72 hrs by MTT assay; type: functional, cell-based; conditions: A549, 72 h
HCT-116 [1] = assay: Antiproliferative activity against human HCT116 cells assessed as reduction in cell viability after 72 hrs by MTT assay; type: functional, cell-based; conditions: HCT-116, 72 h
MCF7 = assay: Antiproliferative activity against human MCF7 cells assessed as reduction in cell viability after 72 hrs by MTT assay; type: functional, cell-based; conditions: MCF7, 72 h
Aurora kinase C = molecular target: T1, Aurora kinase C (Homo sapiens, UniProt Q9UQB9)
T1 sequence (Q9UQB9 whole entry): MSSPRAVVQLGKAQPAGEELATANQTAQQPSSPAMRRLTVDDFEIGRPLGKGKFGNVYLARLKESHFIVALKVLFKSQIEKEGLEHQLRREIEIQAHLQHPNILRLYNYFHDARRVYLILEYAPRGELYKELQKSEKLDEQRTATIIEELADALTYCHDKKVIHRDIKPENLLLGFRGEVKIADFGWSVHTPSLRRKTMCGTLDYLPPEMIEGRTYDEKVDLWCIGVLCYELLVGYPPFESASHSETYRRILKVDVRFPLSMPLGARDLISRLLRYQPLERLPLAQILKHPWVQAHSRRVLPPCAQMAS
Description: Inhibition of recombinant full-length His-tagged human Aurora C expressed in baculovirus expression system

Aurora kinase A = molecular target: T2, Aurora kinase A (Homo sapiens, UniProt O14965); assay: Inhibition of Aurora A (unknown origin) after 1 hr in presence of ATP by Kinase-Glo reagent-based luminescence assay
T2 sequence (O14965 whole entry): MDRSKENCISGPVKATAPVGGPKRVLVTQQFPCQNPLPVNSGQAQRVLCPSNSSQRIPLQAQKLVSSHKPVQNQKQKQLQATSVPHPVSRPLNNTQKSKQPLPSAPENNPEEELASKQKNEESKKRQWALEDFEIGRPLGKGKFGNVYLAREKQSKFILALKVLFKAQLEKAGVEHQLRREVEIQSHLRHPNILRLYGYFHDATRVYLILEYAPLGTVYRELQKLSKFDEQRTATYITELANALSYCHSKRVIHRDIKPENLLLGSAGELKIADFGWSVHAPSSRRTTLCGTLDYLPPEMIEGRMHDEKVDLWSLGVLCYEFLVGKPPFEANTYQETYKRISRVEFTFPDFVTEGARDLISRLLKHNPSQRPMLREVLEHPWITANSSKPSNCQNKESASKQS

Aurora kinase B [2] = molecular target: T3, Aurora kinase B (Homo sapiens, UniProt Q96GD4); assay: Inhibition of Aurora B (unknown origin) after 1 hr in presence of ATP by Kinase-Glo reagent-based luminescence assay
T3 sequence (Q96GD4 whole entry): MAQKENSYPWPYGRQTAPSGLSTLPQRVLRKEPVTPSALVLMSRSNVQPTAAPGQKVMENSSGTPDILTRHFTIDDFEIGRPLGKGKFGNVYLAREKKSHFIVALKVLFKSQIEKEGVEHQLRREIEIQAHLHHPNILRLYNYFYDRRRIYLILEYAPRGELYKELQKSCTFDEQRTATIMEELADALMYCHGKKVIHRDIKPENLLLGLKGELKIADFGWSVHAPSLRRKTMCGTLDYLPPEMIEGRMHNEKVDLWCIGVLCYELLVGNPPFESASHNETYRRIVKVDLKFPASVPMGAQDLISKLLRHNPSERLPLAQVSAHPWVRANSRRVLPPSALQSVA

[3] = molecular target: Vascular endothelial growth factor receptor 2 (Homo sapiens) (UniProt P35968); assay: Inhibition of VEGFR2 (unknown origin) at 1 uM after 1 hr in presence of ATP by Kinase-Glo reagent-based luminescence assay relative to control
Sequence of Vascular endothelial growth factor receptor 2 (Homo sapiens) (P35968 whole entry, canonical isoform): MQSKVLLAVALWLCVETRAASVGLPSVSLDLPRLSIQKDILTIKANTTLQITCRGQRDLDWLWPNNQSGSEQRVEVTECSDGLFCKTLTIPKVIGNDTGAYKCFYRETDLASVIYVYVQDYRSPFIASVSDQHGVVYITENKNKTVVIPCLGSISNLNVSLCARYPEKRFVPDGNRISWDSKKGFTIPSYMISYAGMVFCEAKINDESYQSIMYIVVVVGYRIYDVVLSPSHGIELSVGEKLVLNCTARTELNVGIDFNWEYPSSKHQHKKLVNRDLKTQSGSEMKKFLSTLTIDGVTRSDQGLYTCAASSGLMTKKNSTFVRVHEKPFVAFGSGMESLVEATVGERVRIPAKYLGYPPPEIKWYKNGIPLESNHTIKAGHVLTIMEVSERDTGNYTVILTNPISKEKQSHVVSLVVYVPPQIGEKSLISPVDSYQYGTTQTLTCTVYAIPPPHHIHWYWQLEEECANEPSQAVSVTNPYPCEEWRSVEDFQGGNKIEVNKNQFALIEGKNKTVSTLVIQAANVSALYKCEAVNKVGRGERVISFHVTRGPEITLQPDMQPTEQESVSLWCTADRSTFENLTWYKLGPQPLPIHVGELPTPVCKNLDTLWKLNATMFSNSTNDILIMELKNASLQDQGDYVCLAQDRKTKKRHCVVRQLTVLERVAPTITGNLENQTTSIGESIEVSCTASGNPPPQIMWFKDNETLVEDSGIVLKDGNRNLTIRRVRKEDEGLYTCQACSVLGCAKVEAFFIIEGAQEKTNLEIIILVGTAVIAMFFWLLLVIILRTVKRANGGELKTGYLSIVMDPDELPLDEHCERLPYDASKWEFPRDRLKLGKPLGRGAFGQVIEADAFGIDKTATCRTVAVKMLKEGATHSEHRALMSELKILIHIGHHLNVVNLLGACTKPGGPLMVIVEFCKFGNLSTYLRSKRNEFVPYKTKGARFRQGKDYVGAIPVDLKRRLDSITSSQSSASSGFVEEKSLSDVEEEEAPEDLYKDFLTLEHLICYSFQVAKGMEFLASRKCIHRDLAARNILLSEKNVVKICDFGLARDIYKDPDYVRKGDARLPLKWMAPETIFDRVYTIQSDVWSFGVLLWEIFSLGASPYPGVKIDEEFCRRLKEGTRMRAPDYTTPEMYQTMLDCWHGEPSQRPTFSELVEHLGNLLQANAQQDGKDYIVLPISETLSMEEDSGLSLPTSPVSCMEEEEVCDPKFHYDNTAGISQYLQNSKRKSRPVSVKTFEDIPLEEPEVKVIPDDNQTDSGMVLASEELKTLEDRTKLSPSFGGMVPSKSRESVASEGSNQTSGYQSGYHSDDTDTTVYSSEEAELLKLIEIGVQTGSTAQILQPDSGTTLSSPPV

[4] = molecular target: Phosphatidylinositol 4,5-bisphosphate 3-kinase catalytic subunit alpha isoform (Homo sapiens) (UniProt P42336); assay: Inhibition of PI3Kalpha (unknown origin) at 1 uM after 1 hr in presence of ATP by Kinase-Glo reagent-based luminescence assay relative to control
Sequence of Phosphatidylinositol 4,5-bisphosphate 3-kinase catalytic subunit alpha isoform (Homo sapiens) (P42336 whole entry, canonical isoform): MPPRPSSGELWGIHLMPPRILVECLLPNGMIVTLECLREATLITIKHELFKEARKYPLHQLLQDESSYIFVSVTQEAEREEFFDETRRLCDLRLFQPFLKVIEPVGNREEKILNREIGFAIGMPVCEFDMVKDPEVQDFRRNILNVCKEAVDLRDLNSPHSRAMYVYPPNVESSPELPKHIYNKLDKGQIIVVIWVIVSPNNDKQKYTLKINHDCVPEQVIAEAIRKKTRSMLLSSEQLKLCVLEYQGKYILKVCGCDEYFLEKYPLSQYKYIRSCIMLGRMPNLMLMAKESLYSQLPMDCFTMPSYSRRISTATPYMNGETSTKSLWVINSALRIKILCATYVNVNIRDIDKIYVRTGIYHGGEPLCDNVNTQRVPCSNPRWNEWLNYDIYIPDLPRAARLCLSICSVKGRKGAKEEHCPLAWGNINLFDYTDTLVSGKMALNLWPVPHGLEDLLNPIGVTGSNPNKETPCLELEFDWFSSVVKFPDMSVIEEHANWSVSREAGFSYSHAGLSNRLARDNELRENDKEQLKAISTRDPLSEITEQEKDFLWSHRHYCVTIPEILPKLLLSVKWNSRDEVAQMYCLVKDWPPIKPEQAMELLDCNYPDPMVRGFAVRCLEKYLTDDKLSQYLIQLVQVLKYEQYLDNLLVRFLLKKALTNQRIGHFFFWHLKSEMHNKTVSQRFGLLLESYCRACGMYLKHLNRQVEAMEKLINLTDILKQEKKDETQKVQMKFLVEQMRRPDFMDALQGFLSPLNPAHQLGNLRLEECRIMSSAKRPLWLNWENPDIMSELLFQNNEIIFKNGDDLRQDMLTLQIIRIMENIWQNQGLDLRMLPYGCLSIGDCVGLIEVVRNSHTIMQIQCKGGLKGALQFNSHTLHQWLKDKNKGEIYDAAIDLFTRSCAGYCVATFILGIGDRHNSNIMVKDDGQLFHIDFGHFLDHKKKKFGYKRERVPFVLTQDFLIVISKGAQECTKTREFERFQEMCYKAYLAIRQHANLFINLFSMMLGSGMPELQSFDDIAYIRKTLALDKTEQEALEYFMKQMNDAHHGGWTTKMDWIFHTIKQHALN

[5] = molecular target: Fibroblast growth factor receptor 1 (Homo sapiens) (UniProt P11362); assay: Inhibition of FGFR1 (unknown origin) at 1 uM after 1 hr in presence of ATP by Kinase-Glo reagent-based luminescence assay relative to control
Sequence of Fibroblast growth factor receptor 1 (Homo sapiens) (P11362 22-822 limits assumed): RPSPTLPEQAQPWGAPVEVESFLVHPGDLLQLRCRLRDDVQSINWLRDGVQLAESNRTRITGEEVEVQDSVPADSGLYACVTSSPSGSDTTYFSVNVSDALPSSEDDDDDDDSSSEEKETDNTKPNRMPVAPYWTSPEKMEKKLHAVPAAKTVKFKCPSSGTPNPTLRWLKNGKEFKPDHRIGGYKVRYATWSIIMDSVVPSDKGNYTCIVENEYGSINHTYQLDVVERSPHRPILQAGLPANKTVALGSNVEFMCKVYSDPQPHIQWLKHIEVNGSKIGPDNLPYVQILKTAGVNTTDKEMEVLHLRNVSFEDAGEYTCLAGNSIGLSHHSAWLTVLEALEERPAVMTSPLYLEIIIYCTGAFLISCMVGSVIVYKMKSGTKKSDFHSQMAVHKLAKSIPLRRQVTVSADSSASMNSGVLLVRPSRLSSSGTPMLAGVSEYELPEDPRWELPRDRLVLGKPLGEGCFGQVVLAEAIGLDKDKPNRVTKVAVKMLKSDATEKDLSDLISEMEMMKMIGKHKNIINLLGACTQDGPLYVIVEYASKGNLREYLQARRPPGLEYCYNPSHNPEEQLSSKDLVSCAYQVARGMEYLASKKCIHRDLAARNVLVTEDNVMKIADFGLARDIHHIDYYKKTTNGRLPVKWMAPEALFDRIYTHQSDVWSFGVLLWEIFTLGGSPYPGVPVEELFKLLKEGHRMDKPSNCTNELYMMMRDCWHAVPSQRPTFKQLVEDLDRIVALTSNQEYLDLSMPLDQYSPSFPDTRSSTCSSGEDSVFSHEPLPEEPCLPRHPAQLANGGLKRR

[6] = molecular target: T4, Aurora kinase A (Homo sapiens) (UniProt O14965); assay: Inhibition of Aurora A in human HCT116 cells assessed as reduction in phosphorylation at Thr288 residue at 0.5 to 5 uM after 12 hrs by Western blot analysis; type: cell-based; conditions: HCT-116
T4 sequence (whole entry): T2 sequence (O14965 whole entry)

Aurora kinase B [7] = molecular target: T3, Aurora kinase B; assay: Inhibition of Aurora B in human HCT116 cells assessed as reduction in phosphorylation at Thr232 residue at 0.5 to 5 uM after 12 hrs by Western blot analysis; type: cell-based; conditions: HCT-116
HCT-116 [8] = assay: Induction of apoptosis in human HCT116 cells assessed as viable cells at 0.1 uM after 48 hrs by Annexin-V/PI-staining based flow cytometry (reference value: 89.72%); type: functional; conditions: HCT-116, 48 h, read-out: Activity
HCT-116 [9] = assay: Induction of apoptosis in human HCT116 cells assessed as early apoptotic cells at 0.1 uM after 48 hrs by Annexin-V/PI-staining based flow cytometry (reference value: 0.54%); type: functional
HCT-116 [10] = assay: Induction of apoptosis in human HCT116 cells assessed as late apoptotic cells at 0.1 uM after 48 hrs by Annexin-V/PI-staining based flow cytometry (reference value: 3.34%); type: functional
HCT-116 [11] = assay: Induction of apoptosis in human HCT116 cells assessed as necrotic cells at 0.1 uM after 48 hrs by Annexin-V/PI-staining based flow cytometry (reference value: […]); type: functional
HCT-116 [12] = assay: Induction of apoptosis in human HCT116 cells assessed as viable cells at 0.5 uM after 48 hrs by Annexin-V/PI-staining based flow cytometry (reference value: 89.72%); type: functional; conditions: HCT-116, 48 h, read-out: Activity
HCT-116 [13] = assay: Induction of apoptosis in human HCT116 cells assessed as early apoptotic cells at 0.5 uM after 48 hrs by Annexin-V/PI-staining based flow cytometry (reference value: 0.54%); type: functional
HCT-116 [14] = assay: Induction of apoptosis in human HCT116 cells assessed as late apoptotic cells at 0.5 uM after 48 hrs by Annexin-V/PI-staining based flow cytometry (reference value: 3.34%); type: functional
HCT-116 [15] = assay: Induction of apoptosis in human HCT116 cells assessed as necrotic cells at 0.5 uM after 48 hrs by Annexin-V/PI-staining based flow cytometry (reference value: […]); type: functional
HCT-116 [16] = assay: Induction of apoptosis in human HCT116 cells assessed as viable cells at 1 uM after 48 hrs by Annexin-V/PI-staining based flow cytometry (reference value: 89.72%); type: functional; conditions: HCT-116, 48 h, read-out: Activity
HCT-116 [17] = assay: Induction of apoptosis in human HCT116 cells assessed as early apoptotic cells at 1 uM after 48 hrs by Annexin-V/PI-staining based flow cytometry (reference value: 0.54%); type: functional
HCT-116 [18] = assay: Induction of apoptosis in human HCT116 cells assessed as late apoptotic cells at 1 uM after 48 hrs by Annexin-V/PI-staining based flow cytometry (reference value: 3.34%); type: functional
HCT-116 [19] = assay: Induction of apoptosis in human HCT116 cells assessed as necrotic cells at 1 uM after 48 hrs by Annexin-V/PI-staining based flow cytometry (reference value: […]); type: functional
HCT-116 [20] = assay: Induction of apoptosis in human HCT116 cells assessed as necrotic cells after 48 hrs by Annexin-V/PI-staining based flow cytometry; type: functional, cell-based
HCT-116 [21] = assay: Induction of apoptosis in human HCT116 cells assessed as increase in bax protein expression at 0.5 to 5 uM after 12 hrs by Western blot analysis; type: functional, cell-based
HCT-116 [22] = assay: Induction of apoptosis in human HCT116 cells assessed as decrease in bcl-xl protein expression at 0.5 to 5 uM after 12 hrs by Western blot analysis; type: functional, cell-based

IC50 (A549): 11.8 µM
IC50 (HCT-116 [1]): 5.31 µM
IC50 (MCF7): 22 µM
Compound: O=C(Nc1ccc(Cl)cc1)Nc1ccc(Nc2nccc(NC3CCCC3)n2)cc1

IC50 (A549): 7.43 µM
IC50 (HCT-116 [1]): 5.95 µM
IC50 (MCF7): 10.8 µM
Compound: O=C(Nc1ccc(Nc2nccc(NC3CCCCC3)n2)cc1)Nc1ccc(Cl)c(C(F)(F)F)c1

IC50 (A549): 8.61 µM
IC50 (HCT-116 [1]): 4.85 µM
IC50 (MCF7): 9.77 µM
Compound: Cn1cc(Nc2ccnc(Nc3ccc(NC(=O)Nc4ccc(Cl)c(C(F)(F)F)c4)cc3)n2)cn1

IC50 (A549): 5.88 µM
IC50 (HCT-116 [1]): 2.51 µM
IC50 (MCF7): 2.33 µM
Compound: O=C(Nc1ccc(Nc2nccc(NC3CCCC3)n2)cc1)Nc1ccc(Cl)c(C(F)(F)F)c1

IC50 (A549): 4.9 µM
IC50 (HCT-116 [1]): 2.41 µM
IC50 (MCF7): 5.18 µM
Compound: O=C(Nc1ccc(Nc2nccc(NC3CCCC3)n2)cc1)Nc1cccc(C(F)(F)F)c1

IC50 (A549): 7.32 µM
IC50 (HCT-116 [1]): 4.24 µM
IC50 (MCF7): 4.61 µM
Compound: CCCNc1ccnc(Nc2ccc(NC(=O)Nc3ccc(Cl)c(C(F)(F)F)c3)cc2)n1

IC50 (A549): 18.5 µM
IC50 (HCT-116 [1]): 16.4 µM
IC50 (MCF7): 38.2 µM
Compound: O=C(Nc1ccc(Nc2nccc(NC3CC3)n2)cc1)Nc1ccc(Cl)c(C(F)(F)F)c1

Second part, the compound before the results:

Compound: O=C(CC1CCCCC1)Nc1ccc(Nc2nccc(NC3CCCC3)n2)cc1
IC50 (A549): 3.94 µM
IC50 (HCT-116 [1]): 2.44 µM
IC50 (MCF7): 17.6 µM

Compound: c1nc2nc(Nc3ccc(N4CCOCC4)cc3)nc(NC3CCCCC3)c2[nH]1 [REVERSINE]
IC50 (Aurora kinase C): 0.4 µM

Compound: O=C(Cc1ccc(Nc2nccc(NC3CCCC3)n2)cc1)NC1CCCCC1
IC50 (A549): 12.1 µM
IC50 (HCT-116 [1]): 1.31 µM
IC50 (MCF7): 20.5 µM
IC50 (Aurora kinase A): 0.309 µM
IC50 (Aurora kinase B [2]): 0.293 µM
inhibition [3]: < 1%
inhibition [4]: 2.4%
inhibition [5]: < 1%
inhibition [6]: Active
inhibition (Aurora kinase B [7]): Active
viability at 0.1 µM (HCT-116 [8]): 87.8%
Activity (HCT-116 [9]): 1.9%
Activity (HCT-116 [10]): 5.89%
Activity (HCT-116 [11]): 4.39%
viability at 0.5 µM (HCT-116 [12]): 58%
Activity (HCT-116 [13]): 3.99%
Activity (HCT-116 [14]): 22.54%
Activity (HCT-116 [15]): 15.45%
viability at 1 µM (HCT-116 [16]): 7.46%
Activity (HCT-116 [17]): 0.84%
Activity (HCT-116 [18]): 45.64%
Activity (HCT-116 [19]): 46.07%
Activity (HCT-116 [20]): Dose-dependent effect
Activity (HCT-116 [21]): Active
Activity (HCT-116 [22]): Active

Compound: O=C(Cc1ccc(Nc2nccc(NC3CCCC3)n2)cc1)Nc1cccc(C(F)(F)F)c1
IC50 (A549): 3.4 µM
IC50 (HCT-116 [1]): 2.5 µM
IC50 (MCF7): 16.4 µM

Compound: O=C(Nc1ccc(Nc2nccc(Nc3ccc(Cl)cc3)n2)cc1)Nc1ccc(Cl)c(C(F)(F)F)c1
IC50 (A549): 6.32 µM
IC50 (HCT-116 [1]): 4.66 µM
IC50 (MCF7): 12.8 µM

Compound: O=C(Cc1cccc(C(F)(F)F)c1)Nc1ccc(Nc2nccc(NC3CCCC3)n2)cc1
IC50 (A549): 8.27 µM
IC50 (HCT-116 [1]): 5.44 µM
IC50 (MCF7): 5.7 µM

Compound: O=C(Nc1ccc(Nc2nccc(Nc3ccccc3)n2)cc1)Nc1ccc(Cl)c(C(F)(F)F)c1
IC50 (A549): > 50 µM
IC50 (HCT-116 [1]): > 50 µM
IC50 (MCF7): > 50 µM

Compound: Cc1cc(Nc2cc(N3CCN(C)CC3)nc(Sc3ccc(NC(=O)C4CC4)cc3)n2)n[nH]1 [TOZASERTIB]
IC50 (A549): 3.9 µM
IC50 (HCT-116 [1]): 1.49 µM
IC50 (MCF7): 17.4 µM

Compound: O=C(Nc1ccc(Nc2nccc(Nc3ccccc3Cl)n2)cc1)Nc1ccc(Cl)c(C(F)(F)F)c1
IC50 (A549): 18.6 µM
IC50 (HCT-116 [1]): 8.1 µM
IC50 (MCF7): 27.9 µM

Compound: O=C(Nc1ccc(Nc2nccc(NC3CCCC3)n2)cc1)NC1CCCCC1
IC50 (A549): 5.32 µM
IC50 (HCT-116 [1]): 1.09 µM
IC50 (MCF7): 19.2 µM
IC50 (Aurora kinase B [2]): 0.329 µM
inhibition [3]: 4.5%
inhibition [4]: 16.8%
inhibition [5]: < 1%

Compound: O=C(Nc1ccc(Nc2nccc(Nc3cccc(Cl)c3)n2)cc1)Nc1ccc(Cl)c(C(F)(F)F)c1
IC50 (A549): 8.05 µM
IC50 (HCT-116 [1]): 4.82 µM
IC50 (MCF7): 10.4 µM
